Earlier results as cited in patent US20130029928A1 (priority 2010, published 2013).
Read-outs that look alike come from different tables or passages of the source.

What was measured:
[1] = target: retinoid X receptor α (RXRα) (Homo sapiens, UniProt P19793); conditions: ref (14); cited from earlier work
[2] = test system: rats; conditions: cited from earlier work
[3] = target: liver X receptor β (LXRβ) (Homo sapiens, UniProt P55055); conditions: ref (14); cited from earlier work
[4] = cited from earlier work
[5] = following oral exposure; literature; cited from earlier work
[6] = in vivo; cited from earlier work
[7] = test system: primary rat hepatocytes; conditions: Bjork (2009); cited from earlier work
[8] = test system: rats; conditions: doses below those causing maternal toxicity; cited from earlier work
[9] = test system: Breast cancer cell lines; conditions: read-out: IC50 (Concentration, literature); Mol. Cancer Ther. (2002); cited from earlier work

Sequence of liver X receptor β (LXRβ) (P55055 whole entry, species assumed): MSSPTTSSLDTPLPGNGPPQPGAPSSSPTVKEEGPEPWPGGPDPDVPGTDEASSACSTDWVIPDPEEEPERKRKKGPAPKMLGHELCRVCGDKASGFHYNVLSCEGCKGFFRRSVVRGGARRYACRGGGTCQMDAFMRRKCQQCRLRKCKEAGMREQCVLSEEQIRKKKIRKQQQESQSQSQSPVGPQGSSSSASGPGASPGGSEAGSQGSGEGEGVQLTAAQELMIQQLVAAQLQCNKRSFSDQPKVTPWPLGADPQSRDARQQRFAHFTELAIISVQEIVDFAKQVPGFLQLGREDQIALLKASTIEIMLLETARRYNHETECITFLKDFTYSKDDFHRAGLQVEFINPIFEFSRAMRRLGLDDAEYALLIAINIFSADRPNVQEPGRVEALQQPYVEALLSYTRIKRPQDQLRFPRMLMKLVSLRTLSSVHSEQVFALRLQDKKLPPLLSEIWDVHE
Sequence of retinoid X receptor α (RXRα) (P19793 whole entry, species assumed): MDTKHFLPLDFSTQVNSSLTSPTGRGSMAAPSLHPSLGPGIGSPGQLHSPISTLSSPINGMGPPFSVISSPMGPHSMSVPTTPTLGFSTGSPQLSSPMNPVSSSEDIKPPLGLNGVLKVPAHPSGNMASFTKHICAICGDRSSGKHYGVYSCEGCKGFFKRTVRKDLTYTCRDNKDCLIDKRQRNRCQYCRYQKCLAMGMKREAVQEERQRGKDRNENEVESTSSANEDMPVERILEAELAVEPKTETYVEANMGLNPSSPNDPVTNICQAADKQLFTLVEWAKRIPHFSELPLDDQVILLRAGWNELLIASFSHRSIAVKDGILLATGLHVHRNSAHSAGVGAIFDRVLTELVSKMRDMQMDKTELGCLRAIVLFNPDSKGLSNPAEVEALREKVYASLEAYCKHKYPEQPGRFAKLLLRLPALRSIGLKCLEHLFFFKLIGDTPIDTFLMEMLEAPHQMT

Structure (SMILES) | activation of RXRα [1] | tumour incidence (liver, pancreas acinar cell, testes Leydig cell adenomas) ([2]; 30 ppm in the diet) | tumour incidence (liver, pancreas acinar cell, testes Leydig cell adenomas) ([2]; 300 ppm in the diet) | activation of LXRβ [3] | clearance of blood levels ([4]; female rats, 24 hrs after dosing) | accumulation in blood ([4]; female rats, 25 mg/kg oral after 10 previous similar doses) | extent of biliary excretion ([4]; female rats) | time to peak blood levels ([4]; single gavage 25 mg/kg, rats) | total radioactivity absorbed ([4]; single oral dose 14C-PFOA 11 mg/kg, male rats, at 24 hrs) | metabolism [5] | acute oral toxicity [6] | concentration causing increased expression of DDIT3/CHOP/GADD153 [7] | teratogenic or foetotoxic effects [8] | IC50 [9]
O=C(O)C(F)(F)C(F)(F)C(F)(F)C(F)(F)C(F)(F)C(F)(F)C(F)(F)F [PFOA, perfluorooctanoic acid] | Neither liver X receptor β (LXRβ) nor the common heterodimerization partner retinoid X receptor α (RXRα) are activated | not at 30 ppm | increased incidence of benign tumours | Neither liver X receptor β (LXRβ) nor the common heterodimerization partner retinoid X receptor α (RXRα) are activated | > 95% | does not appear to accumulate | < 1.0% | 1 to 2 h | at least 93% | not metabolised | moderate acute oral toxicity | ≥ 30 µM | no teratogenic or foetotoxic effects | –
N#CC(=C(/N)Sc1ccccc1N)/C(C#N)=C(\N)Sc1ccccc1N [U0126] | – | – | – | – | – | – | – | – | – | – | – | – | – | 10 to 20 µM
